Assay results: PMC8865125, “Isocoumarins: a new class of selective carbonic anhydrase IX and XII inhibitors” (Journal of Enzyme Inhibition and Medicinal Chemistry, 2022)
Where two headings read alike, the source gives them in different places.

Experiments:
Assay in all cases: stopped-flow CO2 hydrase assay
Assay type in all cases: biochemical
[1] = target: T1, hCA I (Homo sapiens, UniProt P00915); settings: read-out: KI (μM)^a^,b / hCA I
T1 construct: gene CA1; recombinant
From the text: stopped-flow CO2 hydrase assay on hCA I

[2] = target: T2, hCA XII (Homo sapiens, UniProt O43570); settings: read-out: KI (μM)^a^,b / hCA XII
T2 construct: gene CA12; recombinant
T2 sequence (O43570 25-354 limits assumed): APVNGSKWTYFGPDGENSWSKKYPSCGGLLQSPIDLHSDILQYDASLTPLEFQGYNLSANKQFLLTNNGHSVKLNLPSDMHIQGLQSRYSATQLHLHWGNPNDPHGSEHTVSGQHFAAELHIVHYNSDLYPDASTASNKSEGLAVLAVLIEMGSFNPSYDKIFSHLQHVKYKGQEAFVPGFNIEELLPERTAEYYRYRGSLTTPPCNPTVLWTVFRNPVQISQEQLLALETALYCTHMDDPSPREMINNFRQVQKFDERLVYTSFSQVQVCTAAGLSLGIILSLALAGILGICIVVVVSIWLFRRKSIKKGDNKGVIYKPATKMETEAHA
From the text: stopped-flow CO2 hydrase assay on hCA XII

[3] = target: T3, hCA IX (Homo sapiens, UniProt Q16790); settings: read-out: KI (μM)^a^,b / hCA IX
T3 construct: gene CA9; recombinant
From the text: stopped-flow CO2 hydrase assay on hCA IX

[4] = target: T4, hCA II (Homo sapiens, UniProt P00918); settings: read-out: KI (μM)^a^,b / hCA I
T4 construct: gene CA2; recombinant

[5] = target: T2, hCA XII; settings: read-out: KI (μM)^a^,b / hCA I
[6] = target: T3, hCA IX; settings: read-out: KI (μM)^a^,b / hCA I

T1 sequence (P00915 2-261): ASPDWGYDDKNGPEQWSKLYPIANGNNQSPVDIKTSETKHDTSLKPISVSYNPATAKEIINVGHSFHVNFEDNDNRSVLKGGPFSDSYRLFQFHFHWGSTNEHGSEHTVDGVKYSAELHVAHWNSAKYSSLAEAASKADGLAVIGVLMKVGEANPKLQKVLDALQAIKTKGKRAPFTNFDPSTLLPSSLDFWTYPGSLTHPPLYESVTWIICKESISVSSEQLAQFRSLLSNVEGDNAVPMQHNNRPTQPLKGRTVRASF

| Structure (SMILES) | Ki [1] [µM] | Ki [2] [µM] | Ki [3] [µM] | Ki [4] [µM] | Ki [5] [µM] | Ki [6] [µM] |
| --- | --- | --- | --- | --- | --- | --- |
| O=C1NC(=S)NC(=O)C1=Cc1cn(-c2ccccc2)nc1-c1cc2ccccc2c(=O)o1 [X16, 5-((3–(1-oxo-1H-isochromen-3-yl)-1-phenyl-1H-pyrazol-4-yl)methylene)-2-thioxodihydropyrimidine-4,6(1H,5H)-dione] | > 100 | 47.1 | 49.7 | > 100 |  |  |
| O=Cc1cn(-c2ccccc2)nc1-c1cc2ccccc2c(=O)o1 [X6, 3–(1-oxo-1H-isochromen-3-yl)-1-phenyl-1H-pyrazole-4-carbaldehyde] | > 100 | 6.5 | 7.1 | > 100 |  |  |
| Cc1c(-c2nn(-c3ccccc3)cc2C=C2C(=O)NC(=O)NC2=O)oc(=O)c2ccccc12 [X14, 5-((3–(4-methyl-1-oxo-1H-isochromen-3-yl)-1-phenyl-1H-pyrazol-4-yl)methylene) pyrimidine-2,4,6(1H,3H,5H)-trione] | > 100 | 66.5 | 54.6 | > 100 |  |  |
| Cc1c(-c2nn(-c3ccc(Cl)cc3)cc2C=O)oc(=O)c2ccccc12 [X10, 1–(4-chlorophenyl)-3–(4-methyl-1-oxo-1H-isochromen-3-yl)-1H-pyrazole-4-carbaldehyde] | > 100 | 13.4 | 8.1 | > 100 |  |  |
| CC(=NNc1ccc(Cl)cc1)c1oc(=O)c2ccccc2c1C [X5, 3–(1-(2–(4-chlorophenyl) hydrazono)ethyl)-4-methyl-1H-isochromen-1-one] | > 100 | 5.8 | 2.7 | > 100 |  |  |
| N#Cc1ccc(-n2cc(C=O)c(-c3cc4ccccc4c(=O)o3)n2)cc1 [X8, 4–(4-formyl-3–(1-oxo-1H-isochromen-3-yl)-1H-pyrazol-1-yl) benzonitrile] | > 100 | 8.3 | 8 | > 100 |  |  |
| N#Cc1ccc(-n2cc(C=C3C(=O)NC(=S)NC3=O)c(-c3cc4ccccc4c(=O)o3)n2)cc1 [X18, 4–(4-((4,6-dioxo-2-thioxotetrahydropyrimidin-5(2H)-ylidene)methyl)-3–(1-oxo-1H-isochromen-3-yl)-1H-pyrazol-1-yl) benzonitrile] | > 100 | 53.4 | 78.9 | > 100 |  |  |
| O=C1NC(=S)NC(=O)C1=Cc1cn(-c2ccc(Cl)cc2)nc1-c1cc2ccccc2c(=O)o1 [X17, 5-((1–(4-chlorophenyl)-3–(1-oxo-1H-isochromen-3-yl)-1H-pyrazol-4-yl)methylene)-2-thioxodihydropyrimidine-4,6(1H,5H)-dione] | > 100 |  |  | > 100 | > 100 | > 100 |
| CC(=NNc1ccccc1)c1oc(=O)c2ccccc2c1C [X4, 4-methyl-3–(1-(2-phenylhydrazono)ethyl)-1H-isochromen-1-one] | > 100 | 2.3 | 3.9 | > 100 |  |  |
| Cc1c(-c2nn(-c3ccccc3)cc2C=O)oc(=O)c2ccccc12 [X9, 3–(4-methyl-1-oxo-1H-isochromen-3-yl)-1-phenyl-1H-pyrazole-4-carbaldehyde] | > 100 | 8.1 | 8.9 | > 100 |  |  |
| Cc1c(-c2nn(-c3ccc(Cl)cc3)cc2C=C2C(=O)NC(=S)NC2=O)oc(=O)c2ccccc12 [X20, 5-((1–(4-chlorophenyl)-3–(4-methyl-1-oxo-1H-isochromen-3-yl)-1H-pyrazol-4-yl)methylene)-2-thioxodihydropyrimidine-4,6(1H,5H)-dione] | > 100 |  |  | > 100 | > 100 | > 100 |
| Cc1c(-c2nn(-c3ccc(Cl)cc3)cc2C=C2C(=O)NC(=O)NC2=O)oc(=O)c2ccccc12 [X15, 5-((1–(4-chlorophenyl)-3–(4-methyl-1-oxo-1H-isochromen-3-yl)-1H-pyrazol-4-yl)methylene) pyrimidine-2,4,6(1H,3H,5H)-trione] | > 100 |  |  | > 100 | > 100 | > 100 |
| CC(=NNc1ccccc1)c1cc2ccccc2c(=O)o1 [X1, 3–(1-(2-phenylhydrazono)ethyl)-1H-isochromen-1-one] | > 100 | 1.9 | 4.3 | > 100 |  |  |
| O=Cc1cn(-c2ccc(Cl)cc2)nc1-c1cc2ccccc2c(=O)o1 [X7, 1–(4-chlorophenyl)-3–(1-oxo-1H-isochromen-3-yl)-1H-pyrazole-4-carbaldehyde] | > 100 | 11.6 | 6.2 | > 100 |  |  |
| O=C1NC(=O)C(=Cc2cn(-c3ccc(Cl)cc3)nc2-c2cc3ccccc3c(=O)o2)C(=O)N1 [X12, 5-((1–(4-chlorophenyl)-3–(1-oxo-1H-isochromen-3-yl)-1H-pyrazol-4-yl)methylene) pyrimidine-2,4,6(1H,3H,5H)-trione] | > 100 |  |  | > 100 | > 100 | > 100 |
| Cc1c(-c2nn(-c3ccccc3)cc2C=C2C(=O)NC(=S)NC2=O)oc(=O)c2ccccc12 [X19, 5-((3–(4-methyl-1-oxo-1H-isochromen-3-yl)-1-phenyl-1H-pyrazol-4-yl)methylene)-2-thioxodihydropyrimidine-4,6(1H,5H)-dione] | > 100 | 62.8 | 72.3 | > 100 |  |  |
| N#Cc1ccc(-n2cc(C=C3C(=O)NC(=O)NC3=O)c(-c3cc4ccccc4c(=O)o3)n2)cc1 [X13, 4–(3-(1-oxo-1H-isochromen-3-yl)-4-((2,4,6-trioxotetrahydropyrimidin-5(2H)-ylidene)methyl)-1H-pyrazol-1-yl) benzonitrile] | > 100 | 36.2 | 62.4 | > 100 |  |  |
| CC(=NNc1ccc(C#N)cc1)c1cc2ccccc2c(=O)o1 [X3, 4–(2-(1–(1-oxo-1H-isochromen-3-yl)ethylidene)hydrazinyl) benzonitrile] | > 100 | 1.2 |  | > 100 |  |  |
| O=C1NC(=O)C(=Cc2cn(-c3ccccc3)nc2-c2cc3ccccc3c(=O)o2)C(=O)N1 [X11, 5-((3–(1-oxo-1H-isochromen-3-yl)-1-phenyl-1H-pyrazol-4-yl)methylene) pyrimidine-2,4,6(1H,3H,5H)-trione] | > 100 | 41.7 | 46.2 | > 100 |  |  |
| CC(=NNc1ccc(Cl)cc1)c1cc2ccccc2c(=O)o1 [X2, 3–(1-(2–(4-chlorophenyl) hydrazono)ethyl)-1H-isochromen-1-one] | > 100 | 4.6 | 3.5 | > 100 |  |  |
